Results from patent US12660819B2, “Herbicidal derivatives” (SYNGENTA CROP PROTECTION AG, priority 2020, dated 2026).

What was measured:
Type in all cases: in vivo
[1] = test system: Zea mays (ZEAMX); experiment: Pre-emergence Test (glasshouse, percentage damage to the plant); conditions: 1000 g/ha unless otherwise stated, five-point scale
[2] = test system: Amaranthus retoflexus (AMARE); experiment: as above; conditions: 1000 g/ha unless otherwise stated, five-point scale
[3] = test system: Ipomoea hederacea (IPOHE); experiment: as above; conditions: 1000 g/ha unless otherwise stated, five-point scale
[4] = test system: Abutilon theophrasti (ABUTH); experiment: as above; conditions: 1000 g/ha unless otherwise stated, five-point scale
[5] = test system: Echinochloa crus-galli (ECHCG); experiment: as above; conditions: 1000 g/ha unless otherwise stated, five-point scale
[6] = test system: Abutilon theophrasti (ABUTH); experiment: Post-emergence Test (glasshouse, percentage damage to the plant); conditions: post-emergence spray, 1000 g/ha unless otherwise stated, evaluated after 13 days
In short: (§1)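 Spray treatment of sown glasshouse pots at 1000 g/ha (default rate), vehicle acetone/water 50:50 plus 0.5% Tween 20. Read-out: percentage damage after 13 days, converted to a score where 5 denotes 81-100% and 1 denotes 0-20%.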

[7] = test system: Amaranthus retoflexus (AMARE); experiment: as above; conditions: post-emergence spray, 1000 g/ha unless otherwise stated, evaluated after 13 days
In short: as §1

[8] = test system: Setaria faberi (SETFA); experiment: as above; conditions: post-emergence spray, 1000 g/ha unless otherwise stated, evaluated after 13 days
In short: (§2)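 Percentage damage to the plant, assessed 13 days after application and scored 1–5 in 20% bands. Pots sown in standard soil received compound at 1000 g/ha unless otherwise stated, sprayed under 24/16 °C, 14 h light, 65% humidity.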

[9] = test system: Ipomoea hederacea (IPOHE); experiment: as above; conditions: post-emergence spray, 1000 g/ha unless otherwise stated, evaluated after 13 days
In short: as §2

[10] = test system: Zea mays (ZEAMX); experiment: as above; conditions: post-emergence spray, 1000 g/ha unless otherwise stated, evaluated after 13 days
In short: as §2

[11] = test system: Echinochloa crus-galli (ECHCG); experiment: as above; conditions: post-emergence spray, 1000 g/ha unless otherwise stated, evaluated after 13 days
In short: as §1

[12] = test system: Setaria faberi (SETFA); experiment: Pre-emergence Test (glasshouse, percentage damage to the plant); conditions: 1000 g/ha unless otherwise stated, five-point scale

Structure (SMILES)	percentage damage to the plant, ZEAMX [1]	percentage damage to the plant, AMARE [2]	percentage damage to the plant, IPOHE [3]	percentage damage to the plant, ABUTH [4]	percentage damage to the plant, ECHCG [5]	Post-emergence Test ABUTH, percentage damage to the plant (five-point scale) [6]	Post-emergence Test AMARE, percentage damage to the plant (five-point scale) [7]	Post-emergence Test SETFA, percentage damage to the plant (five-point scale) [8]	Post-emergence Test IPOHE, percentage damage to the plant (five-point scale) [9]	Post-emergence Test ZEAMX, percentage damage to the plant (five-point scale) [10]	Post-emergence Test ECHCG, percentage damage to the plant (five-point scale) [11]	percentage damage to the plant, SETFA [12]
CCn1c(C)c(-c2cc(F)c(OC)c(F)c2)c(=O)c(C(=O)O)c1-c1ccc(Cl)c(Cl)c1 [Compound 84, 2-(3,4-dichlorophenyl)-5-(3,5-difluoro-4-methoxy-phenyl)-1-ethyl-6-methyl-4-oxo-pyridine-3-carboxylic acid]	1 (1=0-20%)	1 (1=0-20%)	3 (3=41-60%)	3 (3=41-60%)	1 (1=0-20%)	3 (3=41-60%)	2 (2=21-40%)	3 (3=41-60%)	3 (3=41-60%)	1 (1=0-20%)	1 (1=0-20%)	4 (4=61-80%)
CCn1c(C)c(-c2cncc(F)c2)c(=O)c(C(=O)O)c1-c1ccc(Cl)c(Cl)c1 [Compound 85, 2-(3,4-dichlorophenyl)-1-ethyl-5-(5-fluoro-3-pyridyl)-6-methyl-4-oxo-pyridine-3-carboxylic acid]	1 (1=0-20%)	1 (1=0-20%)	1 (1=0-20%)	2 (2=21-40%)	1 (1=0-20%)	3 (3=41-60%)	1 (1=0-20%)	3 (3=41-60%)	1 (1=0-20%)	1 (1=0-20%)	1 (1=0-20%)	4 (4=61-80%)
CCn1c(C)c(-c2cc(C)cs2)c(=O)c(C(=O)O)c1-c1ccc(Cl)c(Cl)c1 [Compound 86, 2-(3,4-dichlorophenyl)-1-ethyl-6-methyl-5-(4-methyl-2-thienyl)-4-oxo-pyridine-3-carboxylic acid]	1 (1=0-20%)	4 (4=61-80%)	1 (1=0-20%)	2 (2=21-40%)	3 (3=41-60%)	4 (4=61-80%)	4 (4=61-80%)	4 (4=61-80%)	3 (3=41-60%)	1 (1=0-20%)	3 (3=41-60%)	5 (5=81-100%)
CCn1c(C)c(-c2cc(Cl)c(OC)c(OC)c2)c(=O)c(C(=O)O)c1-c1ccc(Cl)c(Cl)c1 [Compound 87, 5-(3-chloro-4,5-dimethoxy-phenyl)-2-(3,4-dichlorophenyl)-1-ethyl-6-methyl-4-oxo-pyridine-3-carboxylic acid]	1 (1=0-20%)	1 (1=0-20%)	1 (1=0-20%)	1 (1=0-20%)	1 (1=0-20%)	3 (3=41-60%)	2 (2=21-40%)	3 (3=41-60%)	2 (2=21-40%)	1 (1=0-20%)	2 (2=21-40%)	4 (4=61-80%)
CCOc1cc(-c2c(C)n(CC)c(-c3ccc(Cl)c(Cl)c3)c(C(=O)O)c2=O)cc(C(F)(F)F)c1 [Compound 88, 2-(3,4-dichlorophenyl)-5-[3-ethoxy-5-(trifluoromethyl)phenyl]-1-ethyl-6-methyl-4-oxo-pyridine-3-carboxylic acid]	1 (1=0-20%)	1 (1=0-20%)	1 (1=0-20%)	1 (1=0-20%)	1 (1=0-20%)	2 (2=21-40%)	2 (2=21-40%)	2 (2=21-40%)	1 (1=0-20%)	1 (1=0-20%)	2 (2=21-40%)	4 (4=61-80%)
CCc1ccc(-c2c(C)n(CC)c(-c3ccc(Cl)c(Cl)c3)c(C(=O)O)c2=O)cc1 [Compound 89, 2-(3,4-dichlorophenyl)-1-ethyl-5-(4-ethylphenyl)-6-methyl-4-oxo-pyridine-3-carboxylic acid]	1 (1=0-20%)	1 (1=0-20%)	1 (1=0-20%)	1 (1=0-20%)	1 (1=0-20%)	3 (3=41-60%)	1 (1=0-20%)	1 (1=0-20%)	3 (3=41-60%)	1 (1=0-20%)	1 (1=0-20%)	4 (4=61-80%)
CCn1c(C)c(-c2ccc(C(C)=O)cc2)c(=O)c(C(=O)O)c1-c1ccc(Cl)c(Cl)c1 [Compound 90, 5-(4-acetylphenyl)-2-(3,4-dichlorophenyl)-1-ethyl-6-methyl-4-oxo-pyridine-3-carboxylic acid]	1 (1=0-20%)	1 (1=0-20%)	1 (1=0-20%)	1 (1=0-20%)	1 (1=0-20%)	1 (1=0-20%)	1 (1=0-20%)	2 (2=21-40%)	2 (2=21-40%)	1 (1=0-20%)	1 (1=0-20%)	3 (3=41-60%)
CCn1c(C)c(-c2ccc(F)c(C#N)c2)c(=O)c(C(=O)O)c1-c1ccc(Cl)c(Cl)c1 [Compound 91, 5-(3-cyano-4-fluoro-phenyl)-2-(3,4-dichlorophenyl)-1-ethyl-6-methyl-4-oxo-pyridine-3-carboxylic acid]	1 (1=0-20%)	2 (2=21-40%)	3 (3=41-60%)	2 (2=21-40%)	4 (4=61-80%)	3 (3=41-60%)	3 (3=41-60%)	4 (4=61-80%)	3 (3=41-60%)	2 (2=21-40%)	4 (4=61-80%)	4 (4=61-80%)
CCn1c(C)c(-c2ccc(F)c(C#N)c2)c(=O)c(C(=O)O)c1-c1ccc(Cl)c(Cl)c1 [Compound 92, 5-(3-cyano-4-fluoro-phenyl)-2-(3,4-dichlorophenyl)-1-ethyl-6-methyl-4-oxo-pyridine-3-carboxylic acid]	1 (1=0-20%)	1 (1=0-20%)	1 (1=0-20%)	1 (1=0-20%)	1 (1=0-20%)	2 (2=21-40%)	1 (1=0-20%)	1 (1=0-20%)	3 (3=41-60%)	1 (1=0-20%)	1 (1=0-20%)	1 (1=0-20%)
